Results as given in a melting point compilation (Tetko et al.).

Structure (SMILES) | melting point
COc1c(C)c(C)c(OC)c2c1CC2=O | 109 °C
COc1cc([N+](=O)[O-])ccc1O | 99 to 104 °C
Clc1ccc2ncccc2c1 | 43.8 °C
CC(=O)c1ccc(N2C(=O)C=CC2=O)cc1 | 156 °C
Nc1cccc(S(=O)(=O)c2cccc(N)c2)c1 | 172 °C
CC(C)(C)OC(=O)NC(Cc1cccc2ccccc12)C(=O)O (stereo unspecified) | 145 to 148 °C
CC(=O)Nc1ccc(Br)cc1F | 156 °C
COc1cc(OC)c([N+](=O)[O-])c(OC)c1 | 152 °C
CCCCCCCCCCCCCCCCCCCC1CCCCC1 | 45 °C
CCCCCCCCCCCCOc1ccccc1OCCCCCCCCCCCC | 45 to 48 °C
CCOC(=O)C(C#N)=Cc1ccc(-c2ccc(C)cc2)o1 | 123 to 124 °C
COc1nc2c(c(=O)n(C)c(=O)n2C)n1C | 176 °C
CCc1cccc(O)c1 | -4 °C
COc1cccc(C=C(C(=O)O)C(=Cc2cccc(OC)c2)C(=O)O)c1 | 182 °C
COC(=O)[C@@]12[C@H]3c4c(c(-c5ccccc5)c5ccccc5c4-c4ccccc4)[C@@H]1C=C[C@]32C(=O)OC | 210 °C
COc1cc(N=Nc2c(Br)cc([N+](=O)[O-])cc2[N+](=O)[O-])c(NC(C)=O)c(N(CCOC(C)=O)CCOC(C)=O)c1 | 132 °C
COC(=O)c1ccc(O)c(N)c1 | 143 °C
CC1(C)OC(=O)C(=Cc2ccc(-c3ccc([N+](=O)[O-])cc3)o2)C(=O)O1 | 221 °C
O=C(Nc1ccc(F)cc1)Nc1nnc(-c2ccc(Cl)cc2)o1 | 268 to 270 °C
Nc1ccc(S)cc1 | 46 °C
COc1cc(N=C=S)cc(OC)c1OC | 65 °C
Nc1ccccc1-c1cccnc1 | 72 °C
CCOC(=O)c1nc(-c2cncc(Br)c2)no1 | 101 to 103 °C
Cc1c(C(=O)O)sc2c1CCCC2 | 218 °C
Cn1cc(Br)c(N)n1 | 98 °C
Cc1ccc2cccc(C)c2n1 | 27 °C

Structure (SMILES) | melting point
O=C1CCc2cccc3c2N1CC3 | 112 °C
FC(F)(F)c1ccc2c(c1)Nc1ccccc1S2 | 189 °C
O=Cc1ccccc1/C=C/c1ccc([N+](=O)[O-])cc1[N+](=O)[O-] | 186 °C
O=[N+]([O-])c1cc(-c2ncco2)cc([N+](=O)[O-])c1 | 130 °C
CC(C)N(C(=O)SCC(Cl)=CCl)C(C)C | 25 °C
c1ccc(C2=NN(c3ccccc3)CN2c2ccccc2)cc1 | 150 °C
CSC[C@H](N)C(=O)O | 240 °C
COc1ccc(CCCCO)cc1 | 3.5 °C
CC1OC(n2cc(F)c(=O)[nH]c2=O)C(O)C1O (stereo unspecified) | 190 °C
N#CC1CNc2ccccc2O1 (stereo unspecified) | 63 °C
NC(=S)NN=C1C(=O)Nc2ccccc21 | 232 °C
C=CCNC(=O)OC(C)(C)C | 37 °C
Nc1ccc(N=Nc2ccc([N+]([O-])=Nc3ccc(N)cc3)cc2)cc1 | 247 °C
OCCC1CCNCC1 | 132 °C
COc1cc(Cl)c(OC)cc1Cl | 134 °C
Brc1cccc2c(CNCc3cccc4c(Br)cccc34)cccc12 | 142 °C
O=[N+]([O-])c1ccc(N2CCCNCC2)nc1 | 111 to 112 °C
N#C/C(=N\Nc1ccc(Cl)cc1Cl)c1nc(-c2ccc(Cl)cc2)cs1 | 246 °C
COC(=O)C(=Cc1ccc(O)cc1)C(=O)OC | 155 to 160 °C
ClCc1ccc(-c2ncccn2)cc1 | 83 to 84.5 °C
COc1ccc2c(c1)CCCN2 | 42.5 °C
N#CCc1ccccc1Br | 19 °C
CC(=O)c1c(O)cccc1OCCC(C)C | 25 to 27 °C
O=C(O)/C=C/c1ccc2ccc(=O)[nH]c2c1 | 330 °C
CN(C)C(=O)Nc1ccc(SC(F)(F)Cl)c(Cl)c1 | 114 °C
